From patent US9221814B2, “Heterocyclic guanidine F1F0-atpase inhibitors and therapeutic uses thereof” (Lycera Corporation, priority 2012, dated 2015)
Where two headings read alike, the source gives them in different places.

Key:
Ramos cells = assay: Cytotoxicity in Ramos cells; assay type: cell-based; settings: detection limit EC50=16 μM, read-out: Ramos Cell EC50
Protocol: (§1) Exemplary compounds described in above Examples were tested for activity against F1F0-ATPase by measuring the ability of the compounds to inhibit ATP synthesis. In addition, the compounds were assessed for cytotoxicity in Ramos cells. Inhibition of F1F0-ATPase activity in synthesizing ATP and cytotoxicity in Ramos cells were measured according to the procedures described in K. M. Johnson et al. Chemistry & Biology 2005, 12, 485-496.

F1F0-ATPase = target: T1, F1F0-ATPase (Bos taurus, UniProt P13621); assay: Inhibition of F1F0-ATPase activity in synthesizing ATP (ATP synthesis inhibition); assay type: biochemical; settings: detection limit IC50=16 μM, read-out: ATP Syn IC50
T1 construct: from tissue
Protocol: as §1

SMILES	EC50 (Ramos cells)	IC50 (F1F0-ATPase)	EC50 (Ramos cells; Homo sapiens)
CCC(C)N/C(=N/C(=O)c1cnoc1C)Nc1cc(-c2ccc(Cl)cc2)n[nH]1 (stereo not shown) [Compound A-90]	> 16 µM	> 16 µM	
Cc1oncc1C(=O)N=C(Nc1cc(-c2ccc(F)cc2)n[nH]1)NC1CCCC1 [Compound A-124]		> 16 µM	> 16 µM
Cc1oncc1C(=O)/N=C(/NCc1ccc(F)cc1Cl)Nc1cc(-c2ccc(Cl)cc2)n[nH]1 [Compound A-85]	5 to 16 µM	5 to 16 µM	
Cc1cc(N/C(=N\C(=O)c2cc(C)oc2C(F)(F)F)Nc2cc(F)cc(Cl)c2)n[nH]1 [Compound A-108]	5 to 16 µM	< 5 µM	
Cc1ccc(-c2cc(N/C(=N\C(=O)c3cnoc3C)NC3CCCC3)n[nH]2)cc1F [Compound A-91]	< 5 µM	< 5 µM	
Cc1cc(C(=O)/N=C(/NCc2ccc(F)cc2Cl)Nc2cc(-c3ccc(F)cc3)n[nH]2)n(C)n1 [Compound A-86]	5 to 16 µM	< 5 µM	
Cc1cc(C(=O)N=C(Nc2cc(-c3ccc(F)cc3)[nH]n2)NC(C)(C)C)no1 [Compound A-41]		5 to 16 µM	
Cc1oncc1C(=O)N=C(NCC(C)C)Nc1cc(-c2cc(F)cc(Cl)c2)n[nH]1 [Compound A-99]		< 5 µM	5 to 16 µM
Cc1cc(C(=O)/N=C(/Nc2cc(F)cc(Cl)c2)Nc2cc(-c3cc(F)cc(F)c3)[nH]n2)c(C(F)(F)F)o1 [Compound A-115]	5 to 16 µM	< 5 µM	
COCC(C)NC(=NC(=O)c1cn(C)nc1C(F)(F)F)Nc1n[nH]c2cc(F)ccc12 (stereo not shown) [Compound A-207]	> 16 µM	> 16 µM	
CC(C)CN/C(=N/C(=O)c1cc(C(C)(C)C)nn1C)Nc1cc(-c2ccc(Cl)cc2)n[nH]1 [Compound A-73]	< 5 µM	< 5 µM	
Cc1oncc1C(=O)/N=C(\Nc1cc(-c2cc(F)cc(Cl)c2)n[nH]1)NC(C)C [Compound A-100]	< 5 µM	< 5 µM	
COc1ccc(-c2cc(N/C(=N\C(=O)c3cn(C)nc3C(F)(F)F)Nc3ccccc3C(F)(F)F)[nH]n2)cc1F [Compound A-159]	> 16 µM	5 to 16 µM	
Cc1nnsc1C(=O)/N=C(/NCC(C)C)Nc1cc(-c2ccc(F)cc2)[nH]n1 [Compound A-120]	> 16 µM	> 16 µM	
Cc1ccccc1CN/C(=N/C(=O)c1cc(C(C)(C)C)nn1C)Nc1cc(-c2ccc(F)cc2)n[nH]1 [Compound A-44]	< 5 µM	< 5 µM	
Cc1oncc1C(=O)/N=C(\Nc1cc(-c2ccc(Cl)cc2)[nH]n1)NC1CCCC1 [Compound A-89]	> 16 µM	> 16 µM	
CCC(C)N/C(=N/C(=O)c1cc(C)oc1C)Nc1cc(-c2ccc(F)cc2)n[nH]1 (stereo not shown) [Compound A-197]	5 to 16 µM	5 to 16 µM	
CCCn1ccc(C(=O)N=C(Nc2cc(-c3ccc(F)cc3)n[nH]2)NC(C)C)n1 [Compound A-59]		5 to 16 µM	5 to 16 µM
Cc1cc(C(=O)/N=C(\Nc2cc(-c3ccc(Cl)cc3)n[nH]2)NC(C)(C)C)n(C)n1 [Compound A-65]	5 to 16 µM	< 5 µM	
Cn1cc(C(=O)/N=C(\Nc2cc(-c3ccc(O)c(F)c3)n[nH]2)Nc2cccc(Cl)c2F)c(C(F)(F)F)n1 [Compound A-177]	< 5 µM	< 5 µM	
COCC(C)NC(=NC(=O)c1cnoc1C)Nc1cc(-c2ccc(Cl)cc2)n[nH]1 (stereo not shown) [Compound A-75]		5 to 16 µM	> 16 µM

SMILES	EC50 (Ramos cells)	IC50 (F1F0-ATPase)	EC50 (Ramos cells; Homo sapiens)
Cc1cc(N/C(=N\C(=O)c2cc(C)oc2C(F)(F)F)NCC(C)(C)C)n[nH]1 [Compound A-110]	> 16 µM	5 to 16 µM	
Cn1cc(C(=O)/N=C(/Nc2cccc(Cl)c2)Nc2cc(-c3ccc(O)c(F)c3)n[nH]2)c(C(F)(F)F)n1 [Compound A-162]	< 5 µM	< 5 µM	
CCC(C)N/C(=N/C(=O)c1cc(C)oc1C(F)(F)F)Nc1cc(C)n[nH]1 (stereo not shown) [Compound A-111]	> 16 µM	5 to 16 µM	
Cn1cc(C(=O)N=C(Nc2cc(-c3ccc(O)c(F)c3)n[nH]2)Nc2cc(Cl)ccc2F)c(C(F)(F)F)n1 [Compound A-168]		< 5 µM	5 to 16 µM
Cc1nnsc1C(=O)/N=C(\Nc1cc(-c2ccc(F)cc2)n[nH]1)NC(C)(C)C [Compound A-47]	< 5 µM	5 to 16 µM	
CCC(C)N/C(=N/C(=O)c1cc(C)oc1C(F)(F)F)Nc1cc(-c2ccc(F)cc2)n[nH]1 (stereo not shown) [Compound A-204]	< 5 µM	< 5 µM	
CC(C)CN/C(=N/C(=O)c1cn(C)nc1C(F)(F)F)Nc1cc(-c2ccc(O)c(F)c2)n[nH]1 [Compound 3, N-(((3-(3-Fluoro-4-hydroxyphenyl)-1H-pyrazol-5-yl)amino)(isobutylamino)methylene)-1-methyl-3-(trifluoromethyl)-1H-pyrazole-4-carboxamide]		5 to 16 µM	> 16 µM
Cc1cc(C(=O)/N=C(/Nc2cc(F)cc(Cl)c2)Nc2cc(C(F)(F)F)n[nH]2)on1 [Compound A-36]	< 5 µM	< 5 µM	
COC[C@H](C)N/C(=N\C(=O)c1cn(C)nc1C(F)(F)F)Nc1cc(-c2cc(F)cc(F)c2)n[nH]1 [Compound A-32]	5 to 16 µM	5 to 16 µM	
COc1ccc(-c2cc(N/C(=N\C(=O)c3cn(C)nc3C(F)(F)F)Nc3ccccc3C(C)(C)C)[nH]n2)cc1F [Compound A-158]	> 16 µM	< 5 µM	
CSc1ccc(N/C(=N\C(=O)c2cn(C)nc2C(F)(F)F)Nc2cc(-c3ccc(O)cc3F)n[nH]2)cc1 [Compound A-8]	< 5 µM	5 to 16 µM	
Cc1oncc1C(=O)/N=C(/NCC(C)C)Nc1cc(-c2ccc(Cl)cc2)n[nH]1 [Compound A-69]	> 16 µM	> 16 µM	
Cn1cc(C(=O)/N=C(/Nc2cc(F)cc(Cl)c2)Nc2cccc(O)n2)c(C(F)(F)F)n1 [Compound A-234]		< 5 µM	< 5 µM
Cc1nc(C(=O)/N=C(/NCC(C)C)Nc2cc(-c3ccc(F)cc3)n[nH]2)c(C)o1 [Compound A-193]	5 to 16 µM	5 to 16 µM	
Cn1cc(C(=O)/N=C(/NCC(C)(C)C)Nc2n[nH]c3cncc(F)c23)c(C(F)(F)F)n1 [Compound A-144]	> 16 µM	5 to 16 µM	
Cc1ccc(-c2cc(N/C(=N\C(=O)c3cnoc3C)NC3CCC3)[nH]n2)cc1F [Compound A-94]	5 to 16 µM	< 5 µM	
CCOC(=O)NC1CCC(N/C(=N\C(=O)c2cc(C)oc2C(F)(F)F)Nc2cc(OC)ccc2C)CC1 (stereo not shown) [Compound A-212]		< 5 µM	5 to 16 µM
CC(C)CNC(=NC(=O)c1cn(C)nc1C(F)(F)F)Nc1cc(-c2cc(O)ccc2Cl)n[nH]1 [Compound A-182]		< 5 µM	5 to 16 µM
Cn1cc(C(=O)/N=C(\Nc2n[nH]c3cncc(F)c23)NC(C)(C)C)c(C(F)(F)F)n1 [Compound A-141]	5 to 16 µM	5 to 16 µM	
COc1cccc(CN/C(=N/C(=O)c2cc(C(C)(C)C)nn2C)Nc2cc(-c3ccc(F)cc3)n[nH]2)c1 [Compound A-46]	< 5 µM	< 5 µM	
Cn1cc(C(=O)/N=C(/Nc2ccc(F)c(F)c2)Nc2cc(-c3ccc(O)c(F)c3)n[nH]2)c(C(F)(F)F)n1 [Compound A-176]	< 5 µM	< 5 µM	

SMILES	EC50 (Ramos cells)	IC50 (F1F0-ATPase)	EC50 (Ramos cells; Homo sapiens)
COc1ccc(-c2cc(N/C(=N\C(=O)c3cn(C)nc3C(F)(F)F)NC(C)(C)C)n[nH]2)cc1F [Compound A-128]	< 5 µM	5 to 16 µM	
Cc1nc(C(=O)/N=C(/Nc2ccc(F)cc2)Nc2cccc(Cl)c2)cs1 [Compound A-22]			> 16 µM
Cc1nc(C(=O)/N=C(\Nc2ccc(Cl)cc2)Nc2ccc3[nH]ncc3c2)cs1 [Compound A-19]			> 16 µM
Cc1ccccc1CN/C(=N/C(=O)c1ccno1)Nc1cc(-c2ccc(F)cc2)n[nH]1 [Compound A-39]		5 to 16 µM	
Cc1nc(C(=O)/N=C(/Nc2ccc(F)cc2)Nc2ccccc2C(C)(C)C)cs1 [Compound A-14]			> 16 µM
Cn1nc(C(C)(C)C)cc1C(=O)/N=C(\Nc1cc(-c2ccc(F)cc2)n[nH]1)NC(C)(C)C [Compound A-43]		< 5 µM	
Cc1nc(C(=O)/N=C(\Nc2cccc(C(F)(F)F)c2)Nc2ccc3[nH]ncc3c2)cs1 [Compound A-11]			> 16 µM
Cc1nc(C(=O)/N=C(/Nc2ccc(F)cc2)Nc2cccc(C(F)(F)F)c2)cs1 [Compound A-10]			> 16 µM
Cc1nc(C(=O)/N=C(\Nc2ccc(Cl)cc2)Nc2ccc3[nH]c(=O)oc3c2)cs1 [Compound A-20]			> 16 µM
Cc1nc(C(=O)/N=C(\Nc2cccc(C(F)(F)F)c2)Nc2ccc3[nH]c(=O)oc3c2)cs1 [Compound A-12]			> 16 µM
Cc1nc(C(=O)/N=C(\Nc2cccc(Cl)c2)Nc2ccc3[nH]c(=O)oc3c2)cs1 [Compound A-24]			> 16 µM
Cc1nc(C(=O)/N=C(/Nc2ccc(N3CCC(O)CC3)cc2)Nc2ccccc2C(C)(C)C)cs1 [Compound A-17]			> 16 µM
Cc1nc(C(=O)/N=C(/Nc2ccc(F)cc2)Nc2ccc(Cl)cc2)cs1 [Compound A-18]			> 16 µM
Cc1nc(C(=O)/N=C(\Nc2ccc(Cl)cc2)Nc2ccc(N3CCC(O)CC3)cc2)cs1 [Compound A-21]			> 16 µM
Cc1nc(C(=O)/N=C(/Nc2ccc3[nH]c(=O)oc3c2)Nc2ccccc2C(C)(C)C)cs1 [Compound A-16]			> 16 µM
Cc1nc(C(=O)/N=C(/Nc2ccc3[nH]ncc3c2)Nc2ccccc2C(C)(C)C)cs1 [Compound A-15]			5 to 16 µM
Cc1oncc1C(=O)/N=C(/NCc1ccc(F)cc1Cl)Nc1cc(-c2ccc(F)cc2)n[nH]1 [Compound A-37]	5 to 16 µM		
Cc1nc(C(=O)/N=C(/Nc2ccc(N3CCC(O)CC3)cc2)Nc2cccc(C(F)(F)F)c2)cs1 [Compound A-13]			> 16 µM
Cc1nc(C(=O)/N=C(\Nc2cccc(Cl)c2)Nc2ccc3[nH]ncc3c2)cs1 [Compound A-23]			> 16 µM
